From US20230141101A1, “PDE4 INHIBITOR COMPOUND AND MEDICAL USE THEREOF” (Suzhou Longbotai Pharmaceuticals Co., Ltd., priority 2020, published 2023)

Legend:
Assay type in all cases: biochemical
PDE4D2 = PDE4D2 (Homo sapiens, UniProt Q08499); experiment: PDE4 inhibitory activity assay (FAM-cAMP enzymatic reaction), PDE4D2
Summary of the method: (§1)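 Inhibition rates from a fluorescence read gave IC50 values. Each enzyme (PDE4A1A, PDE4B1, PDE4D2) sat with compound for 15 min at room temperature; FAM-cAMP then started a 30 min room-temperature reaction, ended with stop solution and left 60 min more.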

PDE4A1A = target: T1, PDE4A1A (Homo sapiens, UniProt P27815); experiment: PDE4 inhibitory activity assay (FAM-cAMP enzymatic reaction), PDE4A1A
T1 construct: purchased BPS 60040
Summary of the method: as §1

PDE4B1 = target: T2, PDE4B1 (Homo sapiens, UniProt Q07343); experiment: PDE4 inhibitory activity assay (FAM-cAMP enzymatic reaction), PDE4B1
T2 construct: purchased BPS 60041
Summary of the method: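 Each isoform is incubated with test compound for 15 min at room temperature before FAM-cAMP substrate starts a 30-min reaction.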

[1] = compared with Apremilast and Example 11 of WO2018036470 (WX011)

Sequence of PDE4D2 (Q08499 303-809): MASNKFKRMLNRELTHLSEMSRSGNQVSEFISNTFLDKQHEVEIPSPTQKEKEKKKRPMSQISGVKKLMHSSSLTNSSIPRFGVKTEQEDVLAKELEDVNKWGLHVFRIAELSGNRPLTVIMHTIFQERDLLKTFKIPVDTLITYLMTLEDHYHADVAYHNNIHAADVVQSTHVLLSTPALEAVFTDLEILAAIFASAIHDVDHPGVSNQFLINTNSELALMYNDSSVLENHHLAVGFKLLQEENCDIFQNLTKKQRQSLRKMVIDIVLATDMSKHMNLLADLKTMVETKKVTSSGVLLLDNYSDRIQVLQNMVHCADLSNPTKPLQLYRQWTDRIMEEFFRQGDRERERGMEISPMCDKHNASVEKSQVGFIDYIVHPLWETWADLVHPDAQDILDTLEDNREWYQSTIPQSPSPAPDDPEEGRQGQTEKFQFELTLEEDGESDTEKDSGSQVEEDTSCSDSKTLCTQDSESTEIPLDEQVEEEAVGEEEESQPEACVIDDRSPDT
T1 sequence (P27815 1-647 isoform P27815-4): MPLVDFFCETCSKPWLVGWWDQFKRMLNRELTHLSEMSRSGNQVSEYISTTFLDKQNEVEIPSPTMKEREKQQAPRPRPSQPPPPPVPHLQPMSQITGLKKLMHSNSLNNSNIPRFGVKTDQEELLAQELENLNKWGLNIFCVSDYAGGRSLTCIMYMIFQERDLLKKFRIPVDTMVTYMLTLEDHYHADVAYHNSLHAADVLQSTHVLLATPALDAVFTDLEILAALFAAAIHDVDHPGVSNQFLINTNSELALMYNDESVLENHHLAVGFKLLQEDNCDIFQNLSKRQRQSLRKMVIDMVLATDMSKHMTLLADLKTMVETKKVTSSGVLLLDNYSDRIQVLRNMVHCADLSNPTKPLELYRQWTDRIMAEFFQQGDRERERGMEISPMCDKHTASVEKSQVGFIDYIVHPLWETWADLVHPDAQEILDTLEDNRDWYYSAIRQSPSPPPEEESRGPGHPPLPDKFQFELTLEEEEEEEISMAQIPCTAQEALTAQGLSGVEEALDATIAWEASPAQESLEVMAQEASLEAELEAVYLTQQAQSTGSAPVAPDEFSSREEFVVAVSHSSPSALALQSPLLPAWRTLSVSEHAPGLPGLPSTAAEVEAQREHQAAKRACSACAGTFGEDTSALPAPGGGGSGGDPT
T2 sequence (Q07343 whole entry): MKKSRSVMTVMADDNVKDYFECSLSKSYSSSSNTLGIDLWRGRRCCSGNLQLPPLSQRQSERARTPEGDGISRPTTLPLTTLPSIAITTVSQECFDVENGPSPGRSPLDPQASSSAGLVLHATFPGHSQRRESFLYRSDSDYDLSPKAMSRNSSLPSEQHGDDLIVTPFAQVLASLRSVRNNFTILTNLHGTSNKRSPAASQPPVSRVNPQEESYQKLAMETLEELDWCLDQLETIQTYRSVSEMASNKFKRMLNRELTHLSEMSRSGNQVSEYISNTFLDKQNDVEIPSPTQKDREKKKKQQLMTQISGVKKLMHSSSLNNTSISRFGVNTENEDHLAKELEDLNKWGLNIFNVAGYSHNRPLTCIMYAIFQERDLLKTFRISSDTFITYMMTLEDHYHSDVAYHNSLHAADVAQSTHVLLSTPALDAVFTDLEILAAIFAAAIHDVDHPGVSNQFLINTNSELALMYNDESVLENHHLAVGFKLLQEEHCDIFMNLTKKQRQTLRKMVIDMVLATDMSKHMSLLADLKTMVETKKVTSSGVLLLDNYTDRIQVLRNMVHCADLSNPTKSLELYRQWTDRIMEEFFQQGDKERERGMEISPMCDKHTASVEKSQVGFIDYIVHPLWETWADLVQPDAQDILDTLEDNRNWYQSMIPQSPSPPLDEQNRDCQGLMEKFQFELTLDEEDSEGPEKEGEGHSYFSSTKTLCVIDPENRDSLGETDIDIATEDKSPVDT

SMILES | PDE4 D2 inhibitory effect at 20 nM (PDE4D2) | PDE4 A1 inhibitory effect at 20 nM (PDE4A1A) | PDE4 B1 inhibitory effect at 20 nM (PDE4B1) | IC50 (PDE4D2; read-out: PDE4 D2 inhibitory activity (IC50 value)) [nM] | inhibitory activity against PDE4D2 compared with Apremilast and WX011 (PDE4D2; [1]) | inhibitory activity against PDE4A1A compared with Apremilast and WX011 (PDE4A1A; [1]) | inhibitory activity against PDE4B1 compared with Apremilast and WX011 (PDE4B1; [1])
CCOc1nc([C@@H](CS(C)(=O)=O)n2c(=O)[nH]c3cc(-c4ccccc4C)ccc32)ccc1OC [Ex. 139, (S)-1-(1-(6-ethoxy-5-methoxypyridin-2-yl)-2-(methylsulfonyl)ethyl)-5-(o-methylphenyl)-1H-benzo[d]imidazol-2(3H)-one] | + | + | + |  |  |  | 
CCOc1nc([C@@H](CS(C)(=O)=O)n2c(=O)[nH]c3cc(-c4ccccc4C4CC4)cnc32)ccc1OC [Ex. 87, (S)-6-(2-cyclopropylphenyl)-3-(1-(6-ethoxy-5-methoxypyridin-2-yl)-2-(methylsulfonyl)ethyl)-1H-imidazo[4,5-b]pyridin-2(3H)-one] | + | + | + |  |  |  | 
CCOc1nc([C@@H](CS(C)(=O)=O)n2c(=O)[nH]c3cc(-c4cc(F)c(F)cc4F)cnc32)ccc1OC [Ex. 96, (S)-6-(2,4,5-trifluorophenyl)-3-(1-(6-ethoxy-5-methoxypyridin-2-yl)-2-(methylsulfonyl)ethyl)-1H-imidazo[4,5-b]pyridin-2(3H)-one] | + | + | + |  |  |  | 
CCOc1nc([C@@H](CS(C)(=O)=O)n2c(=O)[nH]c3cc(-c4ccccn4)cnc32)ccc1OC [Ex. 122, (S)-6-(pyridin-2-yl)-3-(1-(6-ethoxy-5-methoxypyridin-2-yl)-2-(methylsulfonyl)ethyl)-1H-imidazo[4,5-b]pyridin-2(3H)-one] | + | + | + |  |  |  | 
CCOc1nc([C@@H](CS(C)(=O)=O)n2c(=O)[nH]c3cc(-c4ccccc4CC)cnc32)ccc1OC [Ex. 81, (S)-3-(1-(6-ethoxy-5-methoxypyridin-2-yl)-2-(methylsulfonyl)ethyl)-6-(2-ethylphenyl)-1H-imidazo[4,5-b]pyridin-2(3H)-one] | + | + | + |  |  |  | 
CCOc1nc([C@@H](CS(C)(=O)=O)n2c(=O)[nH]c3cc(-c4ccc(F)cc4C)cnc32)ccc1OC [Ex. 107, (S)-6-(4-fluoro-2-methylphenyl)-3-(1-(6-ethoxy-5-methoxypyridin-2-yl)-2-(methylsulfonyl)ethyl)-1H-imidazo[4,5-b]pyridin-2(3H)-one] | + | + | + |  |  |  | 
CCOc1nc([C@@H](CS(C)(=O)=O)n2c(=O)n(C)c3cc(-c4ccccc4)cnc32)ccc1OC [Ex. 77, (S)-3-(1-(6-ethoxy-5-methoxypyridin-2-yl)-2-(methylsulfonyl)ethyl)-6-phenyl-1-methyl-1H-imidazo[4,5-b]pyridin-2(3H)-one] | + | + | + |  |  |  | 
CCOc1nc([C@@H](CS(C)(=O)=O)n2c(=O)[nH]c3c(C)c(-c4ccccc4CC)cnc32)ccc1OC [Ex. 10, (S)-3-(1-(6-ethoxy-5-methoxypyridin-2-yl)-2-(methylsulfonyl)ethyl)-6-(2-ethylphenyl)-7-methyl-1H-imidazo[4,5-b]pyridin-2(3H)-one] |  |  |  | 2.8 | significantly enhanced inhibitory activity | significantly enhanced inhibitory activity | significantly enhanced inhibitory activity
CCOc1nc([C@@H](CS(C)(=O)=O)n2c(=O)[nH]c3cc(-c4c(F)cccc4F)ccc32)ccc1OC [Ex. 154, (S)-5-(2,6-difluorophenyl)-1-(1-(6-ethoxy-5-methoxypyridin-2-yl)-2-(methylsulfonyl)ethyl)-1H-benzo[d]imidazol-2(3H)-one] | + | + | + |  |  |  | 

More lines, main results first:

PDE4 D2 inhibitory effect at 20 nM (PDE4D2) | PDE4 A1 inhibitory effect at 20 nM (PDE4A1A) | PDE4 B1 inhibitory effect at 20 nM (PDE4B1) | IC50 (PDE4D2; read-out: PDE4 D2 inhibitory activity (IC50 value)) [nM] | SMILES | inhibitory activity against PDE4D2 compared with Apremilast and WX011 (PDE4D2; [1]) | inhibitory activity against PDE4A1A compared with Apremilast and WX011 (PDE4A1A; [1]) | inhibitory activity against PDE4B1 compared with Apremilast and WX011 (PDE4B1; [1])
+ | + | + |  | CCOc1nc([C@@H](CS(C)(=O)=O)n2c(=O)[nH]c3cc(-c4cc(C)ccc4C)ccc32)ccc1OC [Ex. 164, (S)-5-(2,5-dimethylphenyl)-1-(1-(6-ethoxy-5-methoxypyridin-2-yl)-2-(methylsulfonyl)ethyl)-1H-benzo[d]imidazol-2(3H)-one] |  |  | 
+ | + | + |  | CCOc1nc([C@@H](CS(C)(=O)=O)N2C(=O)c3csc([N+](=O)[O-])c3C2=O)ccc1OC [Ex. 222, (S)-5-(1-(6-ethoxy-5-methoxypyridin-2-yl)-2-(methylsulfonyl)ethyl)-1-nitro-4H-thieno[3,4-c]pyrrol-4,6(5H)-dione] |  |  | 
+ | + | + |  | CCOc1nc([C@@H](CS(C)(=O)=O)N2C(=O)c3csc(NC(=O)CN(C)C)c3C2=O)ccc1OC [Ex. 228, (S)-2-(dimethylamino)-N-(5-(1-(6-ethoxy-5-methoxypyridin-2-yl)-2-(methylsulfonyl)ethyl)-4,6-dioxo-5,6-dihydro-4H-thieno[3,4-c]pyrrol-1-yl)acetamide] |  |  | 
+ | + | + |  | CCOc1nc([C@@H](CS(C)(=O)=O)n2c(=O)[nH]c3cc(-c4ccc(C)cc4C)ccc32)ccc1OC [Ex. 162, (S)-5-(2,4-dimethylphenyl)-1-(1-(6-ethoxy-5-methoxypyridin-2-yl)-2-(methylsulfonyl)ethyl)-1H-benzo[d]imidazol-2(3H)-one] |  |  | 
+ | + | + |  | CCOc1nc([C@@H](CS(C)(=O)=O)n2c(=O)[nH]c3c(-c4ccccc4OC)cccc32)ccc1OC [Ex. 203, (S)-1-(1-(6-ethoxy-5-methoxypyridin-2-yl)-2-(methylsulfonyl)ethyl)-4-(2-methoxyphenyl)-1H-benzo[d]imidazol-2(3H)-one] |  |  | 
+ | + | + |  | CCOc1nc([C@@H](CS(C)(=O)=O)n2c(=O)[nH]c3cc(C(=O)OCC(F)(F)F)ccc32)ccc1OC [Ex. 214, (S)-2,2,2-trifluoroethyl 1-(1-(6-ethoxy-5-methoxypyridin-2-yl)-2-(methylsulfonyl)ethyl)-2-oxo-2,3-dihydro-1H-benzo[d]imidazole-5-carboxylate] |  |  | 
+ | + | + |  | CCOc1nc([C@@H](CS(C)(=O)=O)n2c(=O)[nH]c3c(-c4ccccc4F)cccc32)ccc1OC [Ex. 205, (S)-1-(1-(6-ethoxy-5-methoxypyridin-2-yl)-2-(methylsulfonyl)ethyl)-4-(2-fluorophenyl)-1H-benzo[d]imidazol-2(3H)-one] |  |  | 
+ | + | + |  | CCOc1nc([C@@H](CS(C)(=O)=O)n2c(=O)n(CCOC)c3cc(-c4ccccn4)ccc32)ccc1OC [Ex. 198, (S)-1-(1-(6-ethoxy-5-methoxypyridin-2-yl)-2-(methylsulfonyl)ethyl)-3-(2-methoxyethyl)-5-(pyridin-2-yl)-1H-benzo[d]imidazol-2(3H)-one] |  |  | 
